# Tests used:
# PH-HFpEF patient = test: HELP Study: rest and exercise right heart catheterization after 24-hour i.v. levosimendan, Patient 019-002; assay type: in vivo, human; details: single 24-hour open label lead-in infusion
# Procedure: (§1) During the HELP Study, as described in PCT International Application Publication No. WO 2021/126884, the entire contents of which are incorporated by reference, Patient 019-002 was administered empagliflozin shortly after beginning levosimendan therapy.
# Specifically, Patient 019-002 had established PH-HFpEF and was initially enrolled into the HELP Trial. The diagnosis of PH-HFpEF was confirmed by rest and exercise right heart catheterization. […] The PCWP of 35 mmHg at rest increased with exercise to 55 mmHg at baseline. […] Thus, levosimendan produced a 40% fall in resting PCWP and a 33% fall in exercise PCWP. In addition, at baseline the CVP was 18 mmHg and increased to 30 mmHg with exercise. Following the 24 hours of i.v. levosimendan the CVP fell to 12 mmHg at rest and to 21 mmHg with exercise. Thus, levosimendan produced a 33% fall in resting CVP, and a 30% fall in CVP with exercise. Accordingly, the response of Patient 019-002 to levosimendan treatment was typical of other patients in the study in terms of improvements to their hemodynamic profile (FIG. 1).
# PH-HFpEF patients = test: HELP Study: 6-minute walk distance; assay type: in vivo, human; details: PH-HFpEF patients of the HELP Study, on average, levosimendan alone
# Procedure: 6 MWT is the abbreviation for six-minute walk test. 6 MWT is a performance-based test used to measure functional exercise capacity. The 6 MWT measures the distance an individual is able to walk over a total of 6 minutes at a constant and normal pace. (Vandoni et al. 2018)
# as §1
# [1] = cited from earlier work
# heart failure patients = details: cited from earlier work
# [2] = test system: phosphodiesterase-3 (PDE3); details: cited from earlier work
# [3] = in vivo; cited from earlier work
# [4] = test system: whole cardiomyocytes and isolated contractile apparatus preparations; details: cited from earlier work
# PDE4 = details: cited from earlier work
# [5] = follow-ups two weeks after treatment with levosimendan; cited from earlier work
smiles,measurement,setting,value
C[C@@H]1CC(=O)NN=C1c1ccc(NN=C(C#N)C#N)cc1 [levosimendan],"change in pulmonary capillary wedge pressure (PCWP), FIG. 1",PH-HFpEF patient,decrease
same,improvement of 6-minute walk distance,PH-HFpEF patients,approximately 29 m
same,plasma concentration profile of the levosimendan metabolite OR-1896,[1]; subcutaneous compared with intravenous administration of levosimendan,similar
same,plasma concentrations of levosimendan,[1]; subcutaneous compared with intravenous administration,lower plasma concentrations
OC[C@H]1O[C@@H](c2ccc(Cl)c(Cc3ccc(O[C@H]4CCOC4)cc3)c2)[C@H](O)[C@@H](O)[C@@H]1O [empagliflozin],6-minute walk distance or quality of life,"heart failure patients; EMBRACE HF, PH-HFpEF patients, empagliflozin alone",did not demonstrate a meaningful difference
same,exercise capacity as measured by change in six-minute walk distance,"heart failure patients; EMPERIAL-Preserved and EMPERIAL-Reduced trials, empagliflozin alone",neither of these trials showed an improvement
same,exercise capacity as measured by a difference in 6 MWD,"heart failure patients; HFpEF, HFrEF or PH-HFpEF patients, empagliflozin alone (EMPERIAL-Preserved, EMPERIAL-Reduced, EMBRACE HF)",did not demonstrate a material change
"CC(=O)Nc1ccc(C2=NNC(=O)C[C@H]2C)cc1 [OR-1896, (R)-N-(4-(4-methyl-6-oxo-1,4,5,6-tetrahydropyridazin-3-yl)phenyl) acetamide]",potency in the inhibition of PDE3 compared with levosimendan,[2],profoundly less potent
same,hemodynamic and pharmacologic properties / activity compared with levosimendan,[3],similar
same,"inotropic effects, potency compared with levosimendan",[4],equipotent
same,potency in the inhibition of PDE4 compared with levosimendan,PDE4,profoundly less potent
same,concentrations of metabolite at follow-up,[5],detectable
"C[C@@H]1CC(=O)NN=C1c1ccc(N)cc1 [OR-1855, (R)-6-(4-aminophenyl)-5-methyl-4,5-dihydropyridazin-3(2H)-one]",hemodynamic and pharmacologic properties / activity compared with levosimendan,[3],limited activity
same,concentrations of metabolite at follow-up,[5],detectable

# From US20250025460A1, “USE OF A COMBINATION OF LEVOSIMENDAN AND AN SGLT-2 INHIBITOR TO TREAT HEART FAILURE” (Tenax Therapeutics, Inc., priority 2021, published 2025)
